Patent publication US20260199500A1, “Camptothecin Derivative, Conjugate Thereof, Preparation Method Therefor and Medical Use Thereof” (priority 2023, published 2026)

Tests used:
[1] = Log D of small molecules (1-octanol / phosphate buffer pH 2.5 and pH 7.4, LC-MS/MS); type: physicochemical
Procedure: (1) Preparation of 100 mM phosphate buffer (PB) solution at pH 2.5 and pH 7.4 respectively: • a. Preparation of a solution of 100 mM H3PO4 in water: 14.7 M H3PO4 was diluted with water to a concentration of 100 mM H3PO4, and the pH was measured to be approximately 1.8. • b. Preparation of 100 mM NaH2PO4: 5.999 g of NaH2PO4 was dissolved in 500 mL of water and the pH was measured to be approximately 4.5. • c. Preparation of 100 mM Na2HPO4: 7.098 g of Na2HPO4 was dissolved in water to a volume of 500 mL and the pH was measured to be approximately 9.4. • d. Preparation of 100 mM PB (pH 2.5): 15 mL of 100 mM H3PO4 was added to a 50 mL tube, and then pH was adjusted to 2.5±0.05 with 100 mM NaH2PO4. • d. Preparation of 100 mM PB (pH 7.4): 15 mL of 100 mM Na2HPO4 was added to a 50 mL tube, and then pH was adjusted to 7.4±0.05 with 100 mM NaH2PO4.
(2) Saturation of PBs (pH 2.5 and pH 7.4) with 1-octanol: 10 mL of 1-octanol was added to 100 mL of 100 mM PBs (pH 2.5 and pH 7.4), and the mixture was shaken vigorously, and then allowed to stand overnight at room temperature for later use.
(3) Saturation of 1-octanol with PBs (pH 2.5 and pH 7.4): 10 mL of 100 mM PBs (pH 2.5 and pH 7.4) was added to 100 mL of 1-octanol, and the mixture was shaken vigorously, and then allowed to stand overnight at room temperature for later use.
2.1) 2 μL of 10 mM DMSO stock solution of the test compound were dispensed into test tubes, in duplicate.
2.2) 149 μL of PB saturated with 1-octanol (pH 2.5 and 7.4) were added to the tubes.
2.3) 149 μL of PB (pH 2.5 and 7.4) saturated with 1-octanol were added to the corresponding tubes.
2.4) Each tube was vigorously mixed for 2 minutes, then shaken at 800 rpm for 1 hour at room temperature.
2.5) The tubes were centrifuged at 4000 rpm for 5 minutes at room temperature.
2.6) Appropriate volumes of the buffer phase and 1-octanol phase samples were aliquoted.
2.7) These samples were diluted and analyzed using LC-MS/MS without running a calibration curve.
2.8) Data analysis: The log D value of each compound was calculated using the following formula: f

N87 gastric cancer cells = assay: Inhibitory activity of compounds on N87 gastric cancer cells (CellTiter-Glo, 144 h); type: cell-based; conditions: for IC50 on N87 cells, ratio to DXD: IC50 of PY-X (DXD) set to 1, values are ratios of measured IC50 to DXD, 144 h
Procedure: (§1) On the day of the experiment, the cells were digested with 0.25% trypsin (Gibco, 25200-072), filtered through a 40 μm sieve, diluted with the corresponding medium to a cell density of 1×10^4 cells/mL, and inoculated into a 96-well white cell culture plate (Beyotime, FCP968), with 100 μL of cells added per well. The culture plate was placed in a 37° C. incubator (Thermo 311) containing 5% C02 and incubated for 24 hours. On the second day, the samples to be tested were prepared as a stock solution at a final concentration of 1M in DMSO (Sigma, D1650), then diluted with the corresponding medium to a final concentration of 200 nM, and subjected to four-fold serial dilutions, resulting in a total of 9 concentrations. 100 μL of the diluted sample was added to each well of the 96-well plate. The plate was placed in a 37° C. incubator containing 5% CO2 and incubated for 144 hours. The cell culture plate was then removed, and 100 μL of the cell viability assay reagent (CellTiter-Glo® Luminescent Cell Viability Assay, Promega, G7571) was added to each well. The reaction was carried out in the dark at room temperature for 5 minutes. Luminescence values were read using a microplate reader (TECAN SPARK), and data were processed using Graphpad Prism 7 software.
(§2) PY—Y is referenced in the document (WO2022170971A1); and PY-A is referenced in the document (WO2021148501A1).

[2] = tested on: MDA-MB-468 breast cancer cells; assay: Inhibitory activity of compounds on MDA-MB-468 breast cancer cells (CellTiter-Glo); type: cell-based; conditions: for IC50 on 468 cells, ratio to DXD: IC50 of PY-X (DXD) set to 1, values are ratios of measured IC50 to DXD
Procedure: as §1, §2

[3] = samples retested together, ratio of measured IC50 to DXD

Row | Compound | logD ([1]; pH 2.5) | logD ([1]; pH 7.4) | IC50 on N87 cells, ratio to DXD (retest) (N87 gastric cancer cells; [3]) | IC50 on 468 cells, ratio to DXD (retest) [2, 3] | IC50 on N87 cells, ratio to DXD (N87 gastric cancer cells) | IC50 on 468 cells, ratio to DXD [2]
1 | CC[C@@]1(O)C(=O)OCc2c1cc1n(c2=O)Cc2c-1nc1cc(F)c(C)c3c1c2[C@@H](NC(=O)OCCCO)CC3 [PY-4Car3C, 3-hydroxypropyl((1S,9S)-9-ethyl-5-fluoro-9-hydroxy-4-methyl-10,13-dioxo-2,3,9,10,13,15-hexahydro-1H,12H-benzo[d]pyrano[3′,4′:6,7]indolizino[1,2-b]quinolin-1-yl)carbamate] | 2.2 | 2.29 | 0.3593 | 0.5740 |  | 
2 | CC[C@@]1(O)C(=O)OCc2c1cc1n(c2=O)Cc2c-1nc1cc(F)c(OC)c3c1c2CCC3 [PY-11, (S)-9-ethyl-5-fluoro-9-hydroxy-4-methoxy-1,2,3,9,12,15-hexahydro-10H,13H-benzo[de]pyrano[3′,4:6,7]indolizino[1,2-b]quinolin-10,13-dione] |  |  |  |  | 0.0606 | 0.9642
3 | CC[C@@]1(O)C(=O)OCc2c1cc1n(c2=O)Cc2c-1nc1cc(F)c(OC)c3c1c2[C@@H](N)CC3 [PY-12A, (1S,9S)-1-amino-9-ethyl-5-fluoro-9-hydroxy-4-methoxy-1,2,3,9,12,15-hexahydro-10H,13H-benzo[de]pyrano[3′,4:6,7]indolizino[1,2-b]quinolin-10,13-dione] |  |  |  |  | 1.6441 | 3.3035
4 | CC[C@@]1(O)C(=O)OCc2c1cc1n(c2=O)Cc2c-1nc1cc(F)c(OC)c3c1c2[C@H](N)CC3 [PY-12B, (1R,9S)-1-amino-9-ethyl-5-fluoro-9-hydroxy-4-methoxy-1,2,3,9,12,15-hexahydro-10H,13H-benzo[de]pyrano[3′,4:6,7]indolizino[1,2-b]quinolin-10,13-dione] |  |  |  |  | 5.3044 | 8.4257
5 | CC[C@@]1(O)C(=O)OCc2c1cc1n(c2=O)Cc2c-1nc1cc(F)c(OCCN)c3c1c2CCC3 [PY-17, (S)-4-(2-aminoethoxy)-9-ethyl-5-fluoro-9-hydroxy-1,2,3,9,12,15-hexahydro-10H,13H-benzo[d]pyrano[3′,4′:6,7]indolizino[1,2-b]quinolin-10,13-dione] |  |  |  |  | 3.7859 | 8.0396
6 | CC[C@@]1(O)C(=O)OCc2c1cc1n(c2=O)Cc2c-1nc1cc(F)c(CCN)c3c1c2CCC3 [PY-20] |  |  |  |  | 1.0070 | 1.2806
7 | CC[C@@]1(O)C(=O)OCc2c1cc1n(c2=O)Cc2c-1nc1cc(F)c(CCCCN)c3c1c2CCC3 [PY-24] |  |  |  |  | 1.5288 | 2.2057
